Four compounds from patent US6087334A, “Anti-diabetic peptides” (Amylin Pharmaceuticals, Inc., priority 1998, dated 2000) can be followed below.

Where a SMILES comes first, the peptide text is derived from it. Bridges are numbered along the chain shown (N, C = ends).

This assay has as its target T1, C1a receptor (C1a-type calcitonin receptor) (Rattus norvegicus, UniProt P32214).
T1 construct: expressed in transfected cells
T1 sequence (P32214 25-479 isoform P32214-2 limits assumed): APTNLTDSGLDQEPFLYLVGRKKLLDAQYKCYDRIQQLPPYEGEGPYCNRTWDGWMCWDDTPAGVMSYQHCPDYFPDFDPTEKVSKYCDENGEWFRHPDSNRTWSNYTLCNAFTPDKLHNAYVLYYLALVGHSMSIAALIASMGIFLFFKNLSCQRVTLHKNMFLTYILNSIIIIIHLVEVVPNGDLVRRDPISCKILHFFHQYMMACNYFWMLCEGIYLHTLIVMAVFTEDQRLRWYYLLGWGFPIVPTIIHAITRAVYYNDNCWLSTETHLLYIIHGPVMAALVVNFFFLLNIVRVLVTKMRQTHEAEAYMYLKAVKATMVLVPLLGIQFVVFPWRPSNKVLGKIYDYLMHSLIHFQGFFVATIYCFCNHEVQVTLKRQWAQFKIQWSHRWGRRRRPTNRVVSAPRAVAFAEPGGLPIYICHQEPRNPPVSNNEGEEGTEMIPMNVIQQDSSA
Description: biochemical. Conditions: HEK293 plasma membranes, [35S]-GTPγS 200 pM; read-out: ED50 (nM) Example B (C1a GTPγS). The text has this:
Peptide compounds of the present invention may be evaluated for agonist activity using the procedures described in Example B. The plasma membrane preparation of a 7-transmembrane-G-protein coupled receptor (GPCR) contains not only the receptor but also the G-proteins which constitute the first step in the intracellular signal transduction process when the receptor is activated by an agonist ligand. […] Agonist activation of a GPCR is accompanied by displacement of GDP by GTP from this site. Thus, measurement of the binding of a radiolabelled ligand, namely [^35 S]-GTPγS, for this binding site constitutes a measure of agonist potency for a given ligand. For agonism at the C1a receptor, a similar membrane preparation to that described below for the C1a binding studies is used. C1a pcDNA construction and transfection were carried out as previously described (Albrandt et al. 1993, FEBS Letters, 325:225-232). HEK293 cell lines showing stable expression of the rat C1a-type calcitonin receptor (C1a/293) or the human C1a-type calcitonin receptor (1154/293) were selected by G418 resistance and limiting dilution culture methods. Plasma membranes were collected from homogenized HEK293 cells and used in the [^35 S]-GTPγS assay. Individual test peptides at concentrations spanning 6 log units starting at around […] were examined for their ability to bind [^35 S]-GTPγS. Maximum agonist-specific binding was measured in the presence of 1 μM human calcitonin, constitutive binding was measured in the presence of buffer alone. Peptide potencies (EC50 's for concentration response curves) were calculated by non-linear regression using Prism™ (version 2.01, GraphPAD Software, San Diego, Calif.).
[^35 S]-GTPγS C1a Agonist Studies
Evaluation of the agonist activity of compounds versus the C1a receptor was carried out as follows:
Reference peptides used in these studies were purchased from Bachem (Torrance, Calif.). All other chemicals were of the highest commercial grade. [^35 S]-GTPγS was purchased from NEN Life Science Products, Inc., Pittsburgh, Pa. [^125 I]-human calcitonin was purchased from Amersham Pharmacia Biotech, Inc., Piscataway, N.J.
Methods for C1a pcDNA construction and transfection have been previously described (Albrandt, et al. 1993, FEBS Letters, 325:225-232). HEK293 cell lines stably expressing the rat C1a-type calcitonin receptor (C1a/293) or the human C1a-type calcitonin receptor (1154/293) were selected by G418 resistance and limiting dilution culture methods.
Confluent cells were detached from tissue culture flasks by incubation with 5 mM EDTA in PBS. Cells were homogenized in ice-cold 20 mM HEPES, pH 7.4 with a Polytron homogenizer. Plasma membranes were collected using three cycles of washing in fresh buffer followed by centrifugation for 15 minutes at 48,000×g. The final membrane pellet was resuspended in 20 mM HEPES buffer containing 0.2 mM phenylmethylsulfonyl fluoride (PMSF) and stored at -70° C.
Assay buffer contained 1 μM GDP, 1 mM EDTA, 5 mM MgCl2, 20 mM Hepes, and 150 mM NaCl, pH 7.4. Membranes (7.5 μg membrane protein/well), [^35 S]-GTPγS (200 pM), and peptides were combined in 200 μL buffer in 96-well microtiter plates. After a 75 minute incubation at room temperature, well contents were harvested onto GF/B glass fiber pads using a Tomtec Mach II plate harvestor (Hamden, Conn.). Dried pads were combined with scintillant and counted on a Wallac LKB Beta Plate scintillation counter. For concentration response curves, samples were run in duplicate over a 6 log concentration range starting at 10^-6 M or 10^-7 M. Maximum agonist-specific binding was measured in the presence of 1 μM human calcitonin, constitutive binding was measured in the presence of buffer alone.
Peptide potencies (1C50 's for competitive binding, and EC50 's for concentration response curves) were calculated by non-linear regression using Prism (version 2.01, GraphPAD Software, San Diego, Calif.).
As for `CC(C)C[C@H](NC(=O)[C@H](CCCNC(=N)N)NC(=O)[C@H](C)NC(=O)[C@@H](NC(=O)[C@H](C)NC(=O)[C@@H]1CSSC[C@H](NC(=O)[C@@H](N)CCCCN)C(=O)N[C@@H](CC(N)=O)C(=O)N[C@@H]([C@@H](C)O)C(=O)N[C@@H](C)C(=O)N[C@@H]([C@@H](C)O)C(=O)N1)[C@@H](C)O)C(=O)N[C@@H](C)C(=O)N[C@@H](C)C(=O)N[C@@H](Cc1ccccc1)C(=O)N[C@@H](CC(C)C)C(=O)N[C@@H](C)C(=O)N[C@@H](CCCNC(=N)N)C(=O)N[C@@H](CO)C(=O)N[C@@H](CO)C(=O)NCC(=O)N[C@@H](Cc1ccc(O)cc1)C(N)=O` [Example 1] (H-KCNTATCATARLAAFLARSSGY-NH2; disulfide 2-7), the EC50 was determined as 0.7 nM.
The value for `CC(C)C[C@H](NC(=O)[C@H](CCCNC(=N)N)NC(=O)[C@H](C)NC(=O)[C@@H](NC(=O)[C@H](C)NC(=O)[C@@H]1CSSC[C@H](N)C(=O)N[C@@H](CC(N)=O)C(=O)N[C@@H]([C@@H](C)O)C(=O)N[C@@H](C)C(=O)N[C@@H]([C@@H](C)O)C(=O)N1)[C@@H](C)O)C(=O)N[C@@H](C)C(=O)N[C@@H](C)C(=O)N[C@@H](Cc1ccccc1)C(=O)N[C@@H](CC(C)C)C(=O)N[C@@H](C)C(=O)N[C@@H](CCCNC(=N)N)C(=O)N[C@@H](CO)C(N)=O` [Example 3] (H-CNTATCATARLAAFLARS-NH2; disulfide 1-6) was 1.2 nM; that for `CC(C)C[C@H](NC(=O)[C@H](CCCNC(=N)N)NC(=O)[C@H](C)NC(=O)[C@@H](NC(=O)[C@H](C)NC(=O)[C@@H]1CSSC[C@H](NC(=O)[C@@H](N)CCCCN)C(=O)N[C@@H](CC(N)=O)C(=O)N[C@@H]([C@@H](C)O)C(=O)N[C@@H](C)C(=O)N[C@@H]([C@@H](C)O)C(=O)N1)[C@@H](C)O)C(=O)N[C@@H](C)C(=O)N[C@@H](CC(N)=O)C(=O)N[C@@H](Cc1ccccc1)C(=O)N[C@@H](CC(C)C)C(=O)N[C@H](C(=O)N[C@@H](CCCNC(=N)N)C(=O)N[C@@H](CO)C(=O)N[C@@H](CO)C(=O)NCC(=O)N[C@@H](Cc1ccc(O)cc1)C(N)=O)C(C)C` [Example 5] (H-KCNTATCATARLANFLVRSSGY-NH2; disulfide 2-7) was 5.5 nM.
On to `CC(C)C[C@H](NC(=O)[C@H](CCCNC(=N)N)NC(=O)[C@H](C)NC(=O)[C@@H](NC(=O)[C@H](C)NC(=O)[C@H](C)NC(=O)[C@@H](NC(=O)[C@H](CO)NC(=O)[C@@H](N)CC(C)C)[C@@H](C)O)[C@@H](C)O)C(=O)N[C@@H](C)C(=O)N[C@@H](C)C(=O)N[C@@H](Cc1ccccc1)C(=O)N[C@@H](CC(C)C)C(=O)N[C@@H](C)C(=O)N[C@@H](CCCNC(=N)N)C(=O)N[C@@H](CO)C(N)=O` [Example 6] (H-LSTAATARLAAFLARS-NH2), for which the EC50 stood at 0.58 nM.
